These compounds were tested on HCV genotype 1a replicon cell line (assay: HCV Genotype 1a Replicon Assay). Conditions: Hepatitis C virus, Huh7.5 cell background, NS3-specific protease activity in lysates, 48 or 72 hours, read-out: pEC50 Genotype 1a (converted).
Format: cell-based
Method: Assay 2: HCV Genotype 1a Replicon Assay
The HCV genotype 1a replicon cell line was obtained from Apath LLC (APC89; Huh7.5 cell background). This subgenomic replicon contains the N-terminus of the HCV core protein fused to the neomycin-resistance selectable marker. The EMCV IRES lies downstream and drives expression of the non-structural proteins NS3-NS5B. Compound potencies were determined using the NS3-specific protease activity in lysates as a measurement of compound inhibition of replicon levels.
Cells were grown at 37° C. in a 5% CO2 humidified incubator in DMEM (Invitrogen) with 10% FBS (HyClone), 1×NEAA (Invitrogen), 1× Pen-Strep (Invitrogen), and 850 μg/mL G418 (Invitrogen). On day 1 of the assay, cells were plated at 15,000 cells/well in black 96-well tissue culture plates (Costar) in 200 μL media lacking G418. […] Compounds were initially diluted in DMSO and then diluted another 200× in media to bring the final DMSO concentration down to 0.5%. The cells were incubated with test compounds for 48 or 72 hours. At the end of the incubation period, media and compound were removed from the plates.
To determine the NS3-specific protease activity in lysates, the cells were lysed at room temperature in 50 μL/well of 50 mM Hepes pH 7.5, 150 mM NaCl, 15% Glycerol, 0.15% Triton X-100, 10 mM DTT for 20 minutes with shaking. 50 μL of an NS3/4a protease-specific FRET substrate (Anaspec RET S1 Cat#22991) was then added to the wells at a final concentration of 15 μM. The plates were incubated at 37° C. for 20 minutes, which corresponds to a timepoint at which the protease activity is still in the linear phase. Protease activity was determined by measuring fluorescence (Excitation: 340 nm; Emission: 509 nm).
To analyze the data, the fluorescence was plotted vs. the compound concentration, and EC50 values were determined from a 4-parameter robust fit model using GraphPad Prism software.

Row | SMILES | EC50
1 | COC(=O)N[C@H](C(=O)N1CC(C)=C[C@H]1c1nc(-c2ccc(-c3cc(Cl)c(NC(=O)c4ccc(N5CCN(C(=O)C(C)(C)C)C[C@H]5C)nc4)cc3OC(F)(F)F)cc2)c[nH]1)C(C)C [Example 1, [(S)-1-((S)-2-{4-[5′-Chloro-4′-({6-[(R)-4-(2,2-dimethyl-propionyl)-2-methyl-piperazin-1-yl]-pyridine-3-carbonyl}-amino)-2′-trifluoromethoxy-biphenyl-4-yl]-1H-imidazol-2-yl}-4-methyl-2,5-dihydro-pyrrole-1-carbonyl)-2-methyl-propyl]-carbamic acid methyl ester] | < 100 pM
2 | COC(=O)N[C@H](C(=O)N1CC(C)CC[C@H]1c1nc(-c2ccc(-c3cc(Cl)c(NC(=O)c4ccc(N5CCN(C(=O)C(C)(C)C)C[C@H]5C)nc4)cc3OC(F)(F)F)cc2)c[nH]1)C(C)C (stereo partly drawn) [Example 1-5] | 100 to 1000 pM
3 | COC(=O)N[C@H](C(=O)N1CC(C)=C[C@H]1c1nc(-c2ccc(-c3cc(Cl)c(NC(=O)c4ccc(N5CCN(C(=O)[C@H]6CC6(C)C)C[C@H]5C)nc4)cc3OC(F)(F)F)cc2)c[nH]1)C(C)C [Example 2, ((S)-1-{(S)-2-[4-(5′-Chloro-4′-{[6-((R)-4-(S)-2,2-dimethylcyclopropanecarbonyl-2-methyl-piperazin-1-yl)-pyridine-3-carbonyl]-amino}-2′-trifluoromethoxy-biphenyl-4-yl)-1H-imidazol-2-yl]-4-methyl-2,5-dihydro-pyrrole-1-carbonyl}-2-methyl-propyl)-carbamic acid methyl ester] | < 100 pM
4 | COC(=O)N[C@H](C(=O)N1CC(C)=C[C@H]1c1nc(-c2ccc(-c3ccc(C(=O)Nc4ccc(N5CC(C)N(C(=O)C6CC6)C[C@H]5C)nc4)cc3OC(F)(F)F)cc2)c[nH]1)C(C)C (stereo partly drawn) [Example 2-1] | 100 to 1000 pM
5 | CNC(=O)N1C[C@@H](C)N(c2ccc(NC(=O)c3ccc(-c4ccc(-c5c[nH]c([C@@H]6C=C(C)CN6C(=O)[C@@H](NC(=O)OC)C(C)C)n5)cc4)c(OC(F)(F)F)c3)cn2)CC1C (stereo partly drawn) [Example 2-2] | 100 to 1000 pM
6 | COC(=O)N[C@H](C(=O)N1CC(C)=C[C@H]1c1nc(-c2ccc(-c3ccc(C(=O)Nc4ccc(N5CC(C)N(C(=O)C(C)(C)C)C[C@H]5C)nc4)cc3OC(F)(F)F)cc2)c[nH]1)C(C)C (stereo partly drawn) [Example 2-3] | 100 to 1000 pM
7 | COC(=O)N[C@H](C(=O)N1CC(C)=C[C@H]1c1nc(-c2ccc(-c3ccc(C(=O)Nc4ccc(N5CC(C)N(C(=O)CNC(C)=O)C[C@H]5C)nc4)cc3OC(F)(F)F)cc2)c[nH]1)C(C)C (stereo partly drawn) [Example 2-5] | 100 to 1000 pM
8 | COC(=O)N[C@H](C(=O)N1CC(C)=C[C@H]1c1nc(-c2ccc(-c3ccc(C(=O)Nc4ccc(N5CC(C)N(C(=O)C6(O)CC6(C)C)C[C@H]5C)nc4)cc3OC(F)(F)F)cc2)c[nH]1)C(C)C (stereo partly drawn) [Example 2-6] | 100 to 1000 pM
9 | COC(=O)N[C@H](C(=O)N1CC(C)=C[C@H]1c1nc(-c2ccc(-c3ccc(C(=O)Nc4ccc(N5CC(C)N(C(=O)C6CC6(Cl)Cl)C[C@H]5C)nc4)cc3OC(F)(F)F)cc2)c[nH]1)C(C)C (stereo partly drawn) [Example 2-7] | 100 to 1000 pM
10 | COC(=O)N[C@H](C(=O)N1CC(C)=C[C@H]1c1nc(-c2ccc(-c3ccc(C(=O)Nc4ccc(N5CC(C)N(C(=O)C(C)(C)NC(=O)C6CCC6)C[C@H]5C)nc4)cc3OC(F)(F)F)cc2)c[nH]1)C(C)C (stereo partly drawn) [Example 2-9] | 100 to 1000 pM
11 | COC(=O)N[C@H](C(=O)N1CC(C2CC2)=C[C@H]1c1nc(-c2ccc(-c3cc(Cl)c(NC(=O)c4ccc(N5CCN(C(=O)C(C)(C)C)C[C@H]5C)nc4)cc3OC(F)(F)F)cc2)c[nH]1)C(C)C [Example 3, [(S)-1-((S)-2-{4-[5′-Chloro-4′-({6-[(R)-4-(2,2-dimethyl-propionyl)-2-methyl-piperazin-1-yl]-pyridine-3-carbonyl}-amino)-2′-trifluoromethoxy-biphenyl-4-yl]-1H-imidazol-2-yl}-4-cyclopropyl-2,5-dihydro-pyrrole-1-carbonyl)-2-methyl-propyl]-carbamic acid methyl ester] | < 100 pM
12 | [2H]C([2H])([2H])C1(C([2H])([2H])[2H])CC1C(=O)N1C[C@@H](C)N(c2ccc(NC(=O)c3ccc(-c4ccc5c(ccc6[nH]c([C@@H]7C[C@H](C)CN7C(=O)[C@@H](NC(=O)OC)C(C)C)nc65)c4)c(OC(F)(F)F)c3)cn2)CC1C (stereo partly drawn) [Example 3-8] | < 100 pM
13 | COC(=O)N[C@H](C(=O)N1C[C@@H](C)C[C@H]1c1nc2c(ccc3cc(-c4ccc(C(=O)Nc5ccc(N6CC(C)N(C(=O)C(C)(C)C)C[C@H]6C)nc5)cc4OC(F)(F)F)ccc32)[nH]1)C(C)C (stereo partly drawn) [Example 3-9] | < 100 pM
14 | COC(=O)N[C@H](C(=O)N1C[C@@H](C)C[C@H]1c1nc2c(ccc3cc(-c4ccc(C(=O)Nc5ccc(N6CC(C)N(C(=O)N(C)C)C[C@H]6C)nc5)cc4OC(F)(F)F)ccc32)[nH]1)C(C)C (stereo partly drawn) [Example 3-10] | < 100 pM
15 | COC(=O)N[C@H](C(=O)N1C[C@@H](C)C[C@H]1c1nc2c(ccc3cc(-c4ccc(C(=O)Nc5ccc(N6CC(C)N(C(=O)C7CC7)C[C@H]6C)nc5)cc4OC(F)(F)F)ccc32)[nH]1)C(C)C (stereo partly drawn) [Example 3-11] | < 100 pM
16 | COC(=O)N[C@H](C(=O)N1[C@@H]2CC[C@@H](C2)[C@H]1c1nc(-c2ccc(-c3cc(Cl)c(NC(=O)c4ccc(N5CCN(C(=O)C(C)(C)C)C[C@H]5C)nc4)cc3OC(F)(F)F)cc2)c[nH]1)C1CCOCC1 [Example 5-4] | < 100 pM
17 | COC(=O)N[C@H](C(=O)N1[C@@H]2CC[C@@H](C2)[C@H]1c1nc(-c2ccc(-c3cc(Cl)c(NC(=O)c4ccc(N5CCN(C(=O)C(C)(C)C)C[C@H]5C)nc4)cc3OC(F)(F)F)cc2)c[nH]1)C(C)C [Example 5-5] | 100 to 1000 pM
18 | COC(=O)N[C@H](C(=O)N1[C@@H]2C[C@@H]2CC[C@H]1c1nc(-c2ccc(-c3cc(Cl)c(NC(=O)c4ccc(N5CCN(C(=O)[C@H]6CC6(C)C)C[C@H]5C)nc4)cc3OC(F)(F)F)cc2)c[nH]1)C(C)C [Example 5-8] | < 100 pM
19 | COC(=O)N[C@H](C(=O)N1[C@@H]2C[C@@H]2CC[C@H]1c1nc(-c2ccc(-c3cc(Cl)c(NC(=O)c4ccc(N5CCN(C(=O)C(C)(C)CO)C[C@H]5C)nc4)cc3OC(F)(F)F)cc2)c[nH]1)C(C)C [Example 5-9] | < 100 pM
20 | COC(=O)N[C@H](C(=O)N1C[C@H]2[C@@H]([C@H]1c1nc(-c3ccc(-c4cc(Cl)c(NC(=O)c5ccc(N6CCN(C(=O)C(C)(C)C)C[C@H]6C)nc5)cc4OC(F)(F)F)cc3)c[nH]1)C2(C)C)C(C)C [Example 5-11] | 100 to 1000 pM
21 | COC(=O)N[C@H](C(=O)N1C[C@H]2[C@@H]([C@H]1c1nc(-c3ccc(-c4cc(Cl)c(NC(=O)c5ccc(N6CCN(C(=O)C(C)(C)C)C[C@H]6C)nc5)cc4OC(F)(F)F)cc3)c[nH]1)C2(C)C)C1CCOCC1 [Example 5-12] | 100 to 1000 pM
22 | COC(=O)N[C@H](C(=O)N1C[Si](C)(C)C[C@H]1c1nc(-c2ccc(-c3cc(Cl)c(NC(=O)c4ccc(N5CCN(C(=O)C(C)(C)C)C[C@H]5C)nc4)cc3OC(F)(F)F)cc2)c[nH]1)C(C)C [Example 6, [(S)-1-((R)-5-{4-[5′-Chloro-4′-({6-[(R)-4-(2,2-dimethyl-propionyl)-2-methyl-piperazin-1-yl]-pyridine-3-carbonyl}-amino)-2′-trifluoromethoxy-biphenyl-4-yl]-1H-imidazol-2-yl}-3,3-dimethyl-[1,3]azasilolidine-1-carbonyl)-2-methyl-propyl]-carbamic acid methyl ester] | 100 to 1000 pM
23 | COC(=O)N[C@H](C(=O)N1C[C@@H](C)CC[C@H]1c1nc(-c2ccc(-c3cc(Cl)c(NC(=O)c4ccc(N5CCN(C(=O)C(C)(C)CO)C[C@H]5C)nc4)cc3OC(F)(F)F)cc2)c[nH]1)C(C)C [Example 11, [(S)-1-((2S,5S)-2-{4-[5′-Chloro-4′-({6-[(R)-4-(3-hydroxy-2,2-dimethyl-propionyl)-2-methyl-piperazin-1-yl]-pyridine-3-carbonyl}-amino)-2′-trifluoromethoxy-biphenyl-4-yl]-1H-imidazol-2-yl}-5-methyl-piperidine-1-carbonyl)-2-methyl-propyl]-carbamic acid methyl ester] | 100 to 1000 pM
24 | COC(=O)N[C@H](C(=O)N1CC(C2CC2)=C[C@H]1c1nc(-c2ccc(-c3ccc(C(=O)Nc4ccc(N5CCN(C(=O)C(C)(C)C)C[C@H]5C)nc4)cc3OC(F)(F)F)cc2)c[nH]1)C(C)C [Example 12, ((S)-1-{(S)-4-Cyclopropyl-2-[4-(4′-{6-[(R)-4-(2,2-dimethyl-propionyl)-2-methyl-piperazin-1-yl]-pyridin-3-ylcarbamoyl}-2′-trifluoromethoxy-biphenyl-4-yl)-1H-imidazol-2-yl]-2,5-dihydro-pyrrole-1-carbonyl}-2-methyl-propyl)-carbamic acid methyl ester] | 100 to 1000 pM

— patent US9365549B2, “Hepatitis C virus inhibitors” (THERAVANCE BIOPHARMA R&D IP, LLC, priority 2012, dated 2016)
